EP4186500A1, “MEK INHIBITORS FOR THE PREVENTION AND TREATMENT OF LONG COVID SYNDROME” (Atriva Therapeutics GmbH, priority 2021, dated 2023)
Where two headings read alike, the source gives them in different places.

Assays:
[1] = test system: VSV ΔG/GFP-Luc+SΔ21; assay type: cell-based
[2] = test system: SARS-CoV-2 (FI); assay type: cell-based, Severe acute respiratory syndrome coronavirus; details: primary human ALI cultures, MOI 1.0; 50 µM and 100 µM; three cultures
[3] = test system: pERK1/2; experiment: Wes analysis of ERK phosphorylation in SARS-CoV-2 infected Caco-2 cells; assay type: cell-based, Homo sapiens; details: CaCo-2 cells infected SARS-CoV-2 (MOI 0.1); 50 and 100 µM ATR-002; 24h
Procedure: For the Virus yield reduction assay a 24-well plate (Greiner Bio-One, Cat. 662-160) with 95% confluent Caco-2 cells was prepared. The wells were washed once with Caco-2 infection medium DMEM (Gibco, Cat. 41965-039) supplemented with 5% FCS (Capricorn, Cat. FBS-12A), 1% Penicillin/Streptomycin, (Sigma Aldrich, Cat. P4333) and 1% Non-essential amino acids (NEAA) (Merck, Cat. K 0293). Cells were infected with SARS-CoV-2 (MOI 0.1) for 1h in 200µL Caco-2 infection medium per well. Afterwards the Virus inoculum was removed completely and cells were treated with 1mL per well with different concentrations of ATR-002 (100µM, 50µM, 25µM, 12.5µM, 6.25µM, 3.125µM, 1.56µM, 0.78µM, 0.39µM, 0.195µM, 0.098µM, 0µM) in Caco-2 infection medium with 1% DMSO for 24h at 37°C, 5% CO2. […]
Wes™ capillary electrophoresis by ProteinSimple® was used to identify and quantify pERK1/2, ERK1/2 and SARS-CoV-2 Nucleoprotein. Cell lysates were diluted with 0.1X Sample Buffer (ProteinSimple, Abingdon, Oxford, UK) to approximately 50ng total protein per lane and analyzed using specific antibodies. […] The anti-rabbit secondary antibody (ProteinSimple, Cat. DM-001) and anti-mouse secondary antibody (ProteinSimple, Cat. DM-002) and all other reagents for WES analysis were also purchased from ProteinSimple and were ready to use.

[4] = human, in vivo
[5] = test system: SARS-CoV-2; experiment: SARS-CoV-2 Syrian hamster infection model; details: for reduction of progeny virus in throat swabs (TCID50 assay): 100mg/kg loading dose then 75mg/kg daily, oral; for reduction of progeny virus in throat swabs (TCID50 assay) / reduction of viral load in throat swabs (PCR): day 3 p.i.
[6] = test system: SARS-CoV-2; assay type: cell-based, Severe acute respiratory syndrome coronavirus; details: Caco-2, Vero E6 and Calu-3 cells; 100 µM, 75 µM, 50 µM; 24 hours
[7] = test system: SARS-CoV-2 viral gene RdRP; assay type: cell-based, Severe acute respiratory syndrome coronavirus; details: Vero cells, MOI 0.01; 50 µM ATR-002; 24, 36 and 48 hpi
[8] = test system: memory T cells; experiment: 12-day T cell clonal expansion with IFN-γ FluoroSpot (memory T cell reactivation)
[9] = test system: IP10, TNF-alpha and MCP-1; experiment: Cytokine/chemokine expression in LPS induced PBMC
[10] = test system: cytokine & chemokine gene expression; experiment: Acute lung injury (ALI) mouse model, LPS induced cytokine and chemokine gene expression; assay type: in vivo; details: 5mg/kg LPS i.p.; 25 mg/kg ATR-002 i.p. one hour post stimulation; 6h post treatment
[11] = test system: IL-6, IL-8, MCP-1, IP-10 and CCL5 mRNA; experiment: Pro-inflammatory cytokine mRNA expression in SARS-CoV-2 infected Calu-3 cells (real-time PCR); assay type: cell-based, Homo sapiens; details: SARS-CoV-2 (FI) MOI 0.01, increasing amounts of ATR-002
[12] = test system: MCP-1; experiment: MCP-1 expression in SARS-CoV-2 infected CaCo2 cells; assay type: cell-based, Homo sapiens; details: high amount of ATR-002 necessary
[13] = test system: ACE2; experiment: ACE2 expression in Calu-3 cells (immunofluorescence microscopy and WES); assay type: cell-based, Homo sapiens; details: 100µM ATR-002, 24h
Procedure: Then the wells were washed once with PBS and fixed with 300µL/well 4% PFA in PBS for 10 minutes at room temperature. After another wash step with PBS, the cells were blocked for 1 hour with 1% BSA in PBS at room temperature before incubation with 200µL/well of the primary antibody (Goat-Anti-ACE2 antibody (R&D systems; Cat.: AF933; Lot.:HOK0320061) (1:20) in 1% BSA in PBS for 1h at room temperature on a shaker (100 rpm). Afterwards, the cells were washed three times with PBS before incubation with 200µL/well of the secondary antibody Donkey anti-Goat IgG (H+L) Highly Cross-Absorbed Secondary Antibody, Alexa Fluor Plus 647 (Invitrogen; Ref.: A32849TR; Lot.:VE306231) (1:200) in 1% BSA in PBS for 45 minutes at room temperature on a shaker. After another three wash steps with PBS, 200µL Rhodamine Phalloidin (Invitrogen; Ref.: R415; Lot.: 2157163) (1:40 in 1% BSA in PBS) were added to each well and incubated for 30 minutes at room temperature on a shaker. After two final wash steps with PBS, the cover slips were removed from the wells and mounted on microscope slides with Roti®-Mount FluorCare DAPI (Roth; Art.-Nr.: HP20.1; Lot.: 080293945). The slides were let dry at 4°C in the dark and then analysed using a confocal laser scanning microscope (LSM800, Zeiss).

[14] = test system: MxA and IL8 mRNA; experiment: MxA and IL8 mRNA expression in poly (I:C) transfected A549 cells; assay type: cell-based, Homo sapiens; details: 100 ng/ml poly (I:C), 24 hours
[15] = test system: SARS-CoV-2; assay type: cell-based, Severe acute respiratory syndrome coronavirus; details: CaCo-2 cells, MOI 0.1; 50 and 100 µM ATR-002; 24h
[16] = test system: Calu-3 cells; experiment: Cytotoxicity evaluation in Calu-3 cells; assay type: cell-based, Homo sapiens; details: 72 h treatment
Procedure: In a next step, Calu-3 cells were incubated with increasing amounts of ATR-002 over 24, 48 or 72 hours. Specifically, Calu-3 cells were infected with SARS-CoV-2 (FI) using a MOI of 0.01. 1 h.p.i. cells were treated with ATR-002. Mock, SARS-CoV-2 and DMSO served as controls. […] Untreated (SARS-CoV-2) and DMSO (0.1 %) treated cells served as negative controls. Data represents means ± SD of three independent experiments, each performed in triplicates. Data passed a one-way ANOVA followed by Dunnett's multiple comparison test (^∗∗ p≤0.0021; ^∗∗∗ p≤0,0002; ^∗∗∗∗ p≤0.0001) for each time point separately. DMSO was used as reference. […] Data in combination with (C) was used to calculate the CC50 value and the selectivity index (SI). […] Data represent means ± SD of three independent experiments.

[17] = test system: Human T-cell Inflammation; experiment: T-cell inflammation inhibition assay (Anti-CD3 stimulation) in PBMC; details: 100, 50, and 25 µM, 24 hours, PBMC from three human donors
[18] = test system: Human T-cell Inflammation; experiment: T-cell inflammation inhibition assay (ConA and PHA stimulation) in PBMC; details: 100, 50, and 25 µM, 24 hours, PBMC from three human donors
[19] = test system: SARS-CoV-2 strain FI; assay type: cell-based, Severe acute respiratory syndrome coronavirus; details: Vero cells, MOI 0.01; 50 µM ATR-002; 24h, 36h and 48h
[20] = test system: SARS-CoV-2 (FI); assay type: cell-based, Severe acute respiratory syndrome coronavirus
[21] = LPS induced PMBC cells, 10µg/ml ATR-002

O=C(NOCC1CC1)c1ccc(F)c(F)c1Nc1ccc(I)cc1Cl [CI-1040, reference compound]
internalization of the VSV pseudotype virus (GFP-positive cells) [1]: reduction in the internalization of the VSV pseudotype virus

O=C(O)c1ccc(F)c(F)c1Nc1ccc(I)cc1Cl [ATR-002, 2-(2-chloro-4-iodophenylamino)-N-3,4-difluoro benzoic acid]
production of progeny viral particles [2]: completely blocked the production of progeny viral particles | ERK-phosphorylation [3]: inhibition | blood levels (pharmacokinetics exposure) [4]: confirm the maintenance of clinically relevant blood levels | safety and tolerability [4]: safe and well tolerable | safety of each dose cohort (Safety Review Committee) [4]: considered to be safe | serious adverse events [4]: no serious adverse events | tolerability, weight loss, adverse effects ([5]; both treatment groups compared to vehicle group): well tolerated without significant weight loss | alveolar haemorrhage, oedema and type II pneumocyte hyperplasia ([5]; histopathology 4 days post infection, treated at days 1, 2, and 3 post infection): no haemorrhage, oedema and type II pneumocyte hyperplasia | score in alveolitis ([5]; histopathology 4 days post infection, treated at days 1, 2, and 3 post infection, vehicle score 3): 1 | reduction of progeny virus in throat swabs (TCID50 assay) ([5]; treated 4 hours p.i.): 1.1 log10 | reduction of viral load in throat swabs (PCR) ([5]; treated 4 hours p.i.): 1.1 log10 | reduction of progeny virus in throat swabs (TCID50 assay) ([5]; treated 24 hours p.i.): 1.3 log10 | reduction of viral load in throat swabs (PCR) ([5]; treated 24 hours p.i.): 1.2 log10 | percentage of affected lung area ([5]; treatment 4 hours p.i., day 4 p.i., P=0.0282): significantly reduced affected lung tissue | percentage of affected lung area ([5]; treatment 24 hours p.i., day 4 p.i., P=0.0314): significantly reduced affected lung tissue | reduction in infectious virus titers (TCID50/g tissue) in the nasal turbinates ([5]; treatment start 4 hours p.i., day 4 p.i.): 1.3 log10 | reduction of viral load in the nasal turbinates (PCR) ([5]; treatment started 4 hours p.i., day 4 p.i.): 1.1 log10 | infectious virus titers in the nasal turbinates ([5]; treatment started 24 hours p.i., day 4 p.i.): not the treatment started 24 hours p.i., significantly reduced infectious virus titers | virus titer via RT-qPCR (N gene) [6]: the effect seen on all cell types was comparable | SARS-CoV-2 viral gene RdRP genome copy number [7]: confirmed | internalization of the VSV pseudotype virus (GFP-positive cells) [1]: reduction in the internalization of the VSV pseudotype virus | Spot counts, representing the number of activated T cells ([8]; CEF peptide stimulated PBMCs, three donors, 5 or 10 pg/mL on three different time points, 12 days): not reduced | cell proliferation/density by microscope ([8]; in vitro culture of PBMC): no visible effect on cell proliferation/density | inhibition at 10 µg/mL ([9]; Homo sapiens, PBMC, read-out: inhibition of LPS induced MCP-1): > 90% | IP10 expression [9, 21]: reduced | MCP-1 expression [9, 21]: reduced | TNF-alpha expression [9, 21]: reduced | IL-1beta gene expression in lung [10]: decrease | IL-8 gene expression in lung [10]: decrease | IP-10 gene expression in lung [10]: decrease | MCP-1 gene expression in lung [10]: decrease | MIP-1beta gene expression in lung [10]: decrease | TNF-alpha gene expression in lung [10]: decrease | expression of pro-inflammatory cytokines (IL-6, IL-8, MCP-1, IP-10 and CCL5 mRNA) [11]: reduce the expression of pro-inflammatory cytokines | MCP-1 expression [12]: able to reduce MCP-1 expression | ACE2 expression [13]: reduction of ACE2 | MxA mRNA expression (anti-viral interferon system) [14]: did not affect the stimulation of the anti-viral interferon system | expression of pro-inflammatory IL8 ([14]; even with low concentrations): strong reduction | SARS-CoV-2 virus titer [15]: inhibition | nucleocapsid protein [15]: inhibition | Cytotoxicity [16]: non-toxic concentration range | inhibition of cytokine/chemokine stimulation [17]: significant, dose dependent inhibition | inhibition of cytokine/chemokine stimulation ([18]; ConA stimulation): significant, dose dependent inhibition | inhibition of cytokine/chemokine stimulation ([18]; PHA stimulation): significant, dose dependent inhibition | viral load (virus titer by plaque assay) [19]: lower viral load than control cells | cell damage of infected cells (light microscopy) ([20]; Calu-3 cells infected with SARS-CoV-2, Figure 6 D): did not show the characteristic cell damage | production of progeny viral particles ([20]; Calu-3 cells, MOI 0.01, ATR-002 10 - 150 µM, 24, 48 or 72 hours): concentration dependent decrease in the production of progeny viral particles
